Here are results for 27 compounds from US9999859B2, “Immobilized multi-layer artificial membrane for permeability measurements (PAMPA)” (CORNING INCORPORATED, priority 2005, dated 2018).

Read-outs that look alike come from different tables or passages of the source.

Data set [1] is described as follows: PAMPA permeability with subject invention membrane. It is filed as in vitro ADME. The conditions noted are these: for Papp at 5 h: PAMPA; for measured permeability with 10% methanol, 90% PBS as working buffer: 90% PBS versus PBS, FIG. 8. As to the method:
FIGS. 5-9 present various data relating to the subject invention. […] Then the filter plate 34 was coupled with the receiver plate 42 and the assembly was incubated in a humidity chamber without agitation at room temperature (except for a data set in FIG. 9, where the assembly was incubated in a humidity chamber without agitation at 37° C.) for 5 hours. At the end of the incubation, the plates 34, 42 were separated and 150 μL solution from each well 36, 44 of both the filter plate 34 and the receiver plate 42 was transferred to UV-transparent plates. The final concentrations of compounds in both donor wells and acceptor wells were analyzed by UV-plate reader. […] Where: • C0=initial compound concentration in donor well (mM) • CD (t)=compound concentration in donor well at time t. (mM) • CA (t)=compound concentration in acceptor well at time t.

The conditions of data set [2]: cited from earlier work.
For data set [3] the following is noted: human oral absorption; cited from earlier work.
Where [4] appears, read: PBS pH 7.4, room temperature, no agitation, 5 hours, read-out: Pe Subject Invention Membrane Results.
Setting [5] is: prior art PAMPA membrane, PBS pH 7.4, room temperature, no agitation.

With `O=C1NC(=O)C(c2ccccc2)(c2ccccc2)N1` [phenytoin], in data set [1] (setting [4]), the Papp at 5 h was found to be 5.73 ×10⁻⁶ cm/s. For the same compound, the “PAMPA permeability values found by the prior art” value (“PAMPA permeability values found” below) in data set [2] (in words) was “low”. Moreover, in data set [2] (setting [5]), the “Pe Prior Art Results” value is on record as 0.38 10^−6 cm/s.

With `N=C(N)NC(=O)c1nc(Cl)c(N)nc1N` [amiloride], in data set [1] (setting [4]), the Papp at 5 h was 0.08 ×10⁻⁶ cm/s. Moreover, the “Pe Prior Art Results” value in data set [2] (setting [5]) is 0.00 10^−6 cm/s. In data set [3], the “Human Absorption” value is on record as 50%.

For the compound `NS(=O)(=O)c1cc2c(cc1Cl)NCNS2(=O)=O` [hydrochlorothiazide], the Papp at 5 h in data set [1] (setting [4]) is 0.09 ×10⁻⁶ cm/s. For the same compound, the “Pe Prior Art Results” value in data set [2] (setting [5]) is reported as 0.02 10^−6 cm/s.

For the compound `CC(C)NCC(O)COc1cccc2[nH]ccc12` (stereo not drawn) [pindolol], the Papp at 5 h in data set [1] (setting [4]) is 2.64 ×10⁻⁶ cm/s.

Consider `CCN1CCCC1CNC(=O)c1cc(S(N)(=O)=O)ccc1OC` (stereo not drawn) [sulpiride], for which the Papp at 5 h in data set [1] (setting [4]) is 0.18 ×10⁻⁶ cm/s.

Regarding `COc1ccc2c(c1)c(CC(=O)O)c(C)n2C(=O)c1ccc(Cl)cc1` [indomethacin], the Papp at 5 h in data set [1] (setting [4]) is 6.24 ×10⁻⁶ cm/s.

`CC(=O)CC(c1ccccc1)c1c(O)c2ccccc2oc1=O` (stereo not drawn) [warfarin] gave a Papp at 5 h in data set [1] (pH 7.4) of 5.28 ×10⁻⁶ cm/s.

As to `CCCC(=O)Nc1ccc(OCC(O)CNC(C)C)c(C(C)=O)c1` (stereo not drawn) [acebutolol], the Papp at 5 h in data set [1] (setting [4]) was determined as 0.21 ×10⁻⁶ cm/s. Further, the “Human Absorption” value in data set [3] was 50%.

As for `CC(C)(C)NC[C@H](O)COc1nsnc1N1CCOCC1` [timolol], the Papp at 5 h in data set [1] (setting [4]) turned out to be 4.45 ×10⁻⁶ cm/s. Besides, in data set [2] (in words), the “PAMPA permeability values found” value is recorded as “low”. In addition, the “Pe Prior Art Results” value in data set [2] (setting [5]) was 0.61 10^−6 cm/s.

In the case of `O=C(O)Cc1ccccc1Nc1c(Cl)cccc1Cl` [diclofenac], the Papp at 5 h in data set [1] (setting [4]) was 6.3 ×10⁻⁶ cm/s.

With `CC(C)(C)NCC(O)c1cc(O)cc(O)c1` (stereo not drawn) [terbutaline], in data set [1] (setting [4]), the Papp at 5 h amounted to 0.46 ×10⁻⁶ cm/s. The “Pe Prior Art Results” value in data set [2] (setting [5]) is 0.05 10^−6 cm/s. Besides, the “Human Absorption” value in data set [3] is reported as 60%.

For the compound `CC(C)Cc1ccc(C(C)C(=O)O)cc1` (stereo not drawn) [ibuprofen], in data set [1] (setting [4]), the Papp at 5 h was determined as 4.39 ×10⁻⁶ cm/s. For the same compound, in data set [2] (setting [5]), the “Pe Prior Art Results” value is reported as 2.4 10^−6 cm/s.

Consider `Cc1cc(=O)n(-c2ccccc2)n1C` [antipyrine], for which the “PAMPA permeability values found” value in data set [2] (PAMPA) is reported as “low”. For the same compound, in data set [2] (setting [5]), the “Pe Prior Art Results” value is reported as 0.74 10^−6 cm/s.

Take `Clc1cccc(Cl)c1N=C1NCCN1` [clonidine]: the Papp at 5 h in data set [1] (setting [4]) was 4.92 ×10⁻⁶ cm/s. Moreover, in data set [2] (setting [5]), the “Pe Prior Art Results” value is reported as 1.5 10^−6 cm/s. The “Human Absorption” value in data set [3] was 100%.

As to `Cn1c(=O)c2[nH]cnc2n(C)c1=O` [theophyline], the “Pe Prior Art Results” value in data set [2] (PAMPA, pH 7.4) is on record as 0.04 10^−6 cm/s.

Take `O=C(O)c1cc(/N=N/c2ccc(S(=O)(=O)Nc3ccccn3)cc2)ccc1O` [sulphasalazine]: the Papp at 5 h in data set [1] (setting [4]) worked out at 0.16 ×10⁻⁶ cm/s. Also, the “Pe Prior Art Results” value in data set [2] (setting [5]) is given as 0.00 10^−6 cm/s. In addition, the “Human Absorption” value in data set [3] was 13%.

For `Cn1c(=O)c2c(ncn2C)n(C)c1=O` [caffeine], the “PAMPA permeability values found” value in data set [2] (in words) is recorded as “low”.

As for `NC(=O)N1c2ccccc2C=Cc2ccccc21` [carbamazepine], the Papp at 5 h in data set [1] (setting [4]) was found to be 7.79 ×10⁻⁶ cm/s. Moreover, the “Pe Prior Art Results” value in data set [2] (setting [5]) is 6.4 10^−6 cm/s. The “Human Absorption” value in data set [3] is reported as 100%.

For `COCCc1ccc(OCC(O)CNC(C)C)cc1` (stereo not drawn) [metoprolol], the Papp at 5 h in data set [1] (setting [4]) amounted to 4.29 ×10⁻⁶ cm/s. Moreover, in data set [2] (in words), the “PAMPA permeability values found” value is “low”.

As for `CN1C(C(=O)Nc2ccccn2)=C(O)c2ccccc2S1(=O)=O` [piroxicam], the Papp at 5 h in data set [1] (setting [4]) stood at 4.02 ×10⁻⁶ cm/s. Besides, the “Pe Prior Art Results” value in data set [2] (setting [5]) is 2.64 10^−6 cm/s. In data set [3], the “Human Absorption” value is on record as 100%.

Consider `NC(N)=Nc1nc(CSCCC(N)=NS(N)(=O)=O)cs1` [famotidine], for which, in data set [1] (setting [4]), the Papp at 5 h came out at 0.04 ×10⁻⁶ cm/s. For the same compound, in data set [2] (setting [5]), the “Pe Prior Art Results” value is on record as 0.06 10^−6 cm/s. Further, the “Human Absorption” value in data set [3] is 40%.

Regarding `CC(C)(C)NCC(O)COc1cccc2c1CC(O)C(O)C2` (stereo not drawn) [nadolol], in data set [1] (setting [4]), the Papp at 5 h stood at 0.16 ×10⁻⁶ cm/s. In addition, in data set [2] (setting [5]), the “Pe Prior Art Results” value is recorded as 0.28 10^−6 cm/s. Moreover, the “Human Absorption” value in data set [3] was 30%.

As for `CNC(=C[N+](=O)[O-])NCCSCc1ccc(CN(C)C)o1` [ranitidine], the “Pe Subject Invention Membrane Results” value in data set [1] (PBS pH 7.4, room temperature, no agitation, 5 hours) was 0.45 10^−6 cm/s. Besides, in data set [3], the “Human Absorption” value is reported as 61%.

Turning to `CC(C)(C)c1ccc(C(O)CCCN2CCC(C(O)(c3ccccc3)c3ccccc3)CC2)cc1` (stereo not drawn) [terfenadine], the “measured permeability with 10% methanol, 90% PBS as working buffer” value in data set [1] was “can be measured”.

As for `Nc1nc2c(ncn2COCCO)c(=O)[nH]1` [acyclovir], the Papp at 5 h in data set [1] (setting [4]) worked out at 0.1 ×10⁻⁶ cm/s.

Take `Clc1ccc(COC(Cn2ccnc2)c2ccc(Cl)cc2Cl)c(Cl)c1` (stereo not drawn) [miconazole]: in data set [1], the “measured permeability with 10% methanol, 90% PBS as working buffer” value is on record as “can be measured”.

As to `CC(C(=O)O)c1cccc(C(=O)c2ccccc2)c1` (stereo not drawn) [ketoprofen], in data set [1] (setting [4]), the Papp at 5 h came to 3.1 ×10⁻⁶ cm/s. Besides, in data set [2] (in words), the “PAMPA permeability values found” value is listed as “low”.
